Assay [1] has as its system Sclerotinia sclerotiorum strain FSc10. The assay is described as follows: In vitro antifungal activity, mycelial growth inhibition on PDA medium. The assay is classed as cell-based. How it is done:
(§1) The cultures of Botrytis cinerea strain FBc05 and Sclerotinia sclerotiorum strain FSc10 were obtained from the collection of the Division of Plant Pathology and Mycology at the Department of Plant Protection of Wroclaw University of Environmental and Life Sciences (Poland). Cerrena unicolor (Bull.ex.Fr.) Murr, strain no. 139, originated from the culture collection of the Department of Biochemistry, University of Lublin (Poland). The stock cultures were maintained on potato dextrose agar at +4 °C and periodically transferred to a fresh medium.
(§2) Prior to the fungicidal activity assay of hydrazide–hydrazones 1–35, we considered ethanol and DMSO as potential dissolution media for tested compounds. […] Furthermore, a very important aspect of biological testing is the careful selection of organic solvents. These are typically used, e.g., methanol, ethanol, acetone, and DMSO, and may be highly toxic for microorganisms in even very low concentrations, such as 1% (v/v). Ethanol and DMSO with a final concentration between 0.1 and 1.0% (v/v) in a PDA medium were used and applied to evaluate the inhibition growth of B. cinerea, S. sclerotiorum, and C. unicolor (see Supplementary Materials). The following procedure was applied to the microorganism testing. The assays of fungi inhibition growth were performed at a basal concentration of 50 µg/mL for all compounds, and detailed experiments were extended for testing between 0 and 50 µg/mL (0, 6.25, 12.5, 25.0, and 50.0 µg/mL) for selected compounds. The tests were carried out on Petri dishes (diameter 60 mm) with PDA medium containing appropriate compound, co-solvent control, and hydrazide–hydrazone dissolved in co-solvent assay. A piece of mycelium with a 5 mm edge taken from the outer edge of the growing fungi on the PDA plate with co-solvent was transferred to a central part of the PDA plate with the examined compound. The plates thus inoculated were incubated at 22 °C in the dark for a time when the control plate containing only the co-solvent was covered entirely with the tested microorganism. For B. cinerea and S. sclerotiorum, the test took 3 days, and for C. unicolor, it took 7 days. Each assay was performed at least in triplicate. […] Model parameters c and e were estimated using the nonlinear least-squares method. Parameters d and b (with two exceptions) were fixed and assumed to be equal. Based on estimated parameters, the values of IC50 were determined. […] The IC50 values were calculated only in cases when the model predicted a decrease in growth rate by more than 50%.
(§3) In vitro antifungal activity
(§4) Prior to the fungicidal activity assay of hydrazide-hydrazones 1–35, we considered ethanol (EtOH) and DMSO as potential dissolution media for tested compounds.
(§5) EtOH and DMSO with a final concentration between 0.1–1.0% (v/v) in a PDA medium were applied to evaluate the inhibition growth of B. cinerea, S. sclerotiorum, and C. unicolor (see Table S3). The following procedure was applied to the microorganism testing with the hydrazide-hydrazones. The assays of fungi inhibition growth were performed at a basal concentration of 50 µg/mL for all compounds, and detailed experiments were extended for testing selected molecules 18, 19, 27, […]
(§6) Table S2. In vitro antifungal activity for DMSO and ethanol co-solvents.

Assay [2] deals with Cerrena unicolor strain no. 139. The assay is described as above. The format is cell-based. As to conditions: for inhibition of growth at 50 µg/mL / fungal growth inhibition, C. unicolor: screening at basal 50 µg/mL, PDA medium, mean ± SD of three determinations; for inhibition of growth at 50 µg/mL: read-out: fungal growth inhibition, C. unicolor. How it is done:
as §1, §2, §3, §4, §5, §6

Assay [3] concerns Botrytis cinerea strain FBc05. Described as above. The assay is classed as cell-based. The settings on record: for inhibition of growth at 50 µg/mL / fungal growth inhibition, B. cinerea: screening at basal 50 µg/mL, PDA medium, mean ± SD of three determinations; for inhibition of growth at 50 µg/mL: read-out: fungal growth inhibition, B. cinerea. How it is done: as §1, §2, §3, §4, §5, §6

Assay [4] deals with laccase from Trametes versicolor. The settings on record: read-out: Laccase inhibition, Ki; cited from earlier work.
Where [5] appears, read: screening at basal 50 µg/mL, PDA medium, mean ± SD of three determinations.

Values after ≈ are worked out from the molar mass of the structure shown.

Turning to `CCO` [EtOH, ethanol], the “IC50 of co-solvent, S. sclerotiorum” value in assay [1] (co-solvent at 0.1–1.0% (v/v) in PDA medium) was “n.o”.

Take `CC1(C(=O)Nc2ccc(O)c(Cl)c2Cl)CCCCC1` [Fenhexamid, reference compound]: the inhibition – broadly, the drop in the measured response relative to a control, in per cent – at 50 µg/mL is 32.1% in assay [2] (Cerrena unicolor, NO.139, fungicidal profile, 50 µg/mL, read-out: C. unicolor inhibition) and 100% in assay [3] (Botrytis cinerea, FBC05, fungicidal profile, 50 µg/mL, read-out: B. cinerea inhibition). The inhibition of growth at 50 µg/mL in assay [2] (Cerrena unicolor, NO.139) was found to be 39.9 ± 0.7%; in assay [1] (Sclerotinia sclerotiorum, FSC10, screening at basal 50 µg/mL, PDA medium, mean ± SD of three determinations, read-out: fungal growth inhibition, S. sclerotiorum), 100 ± 0.3%; in assay [3] (Botrytis cinerea, FBC05), 99.9 ± 0.4%. Besides, the inhibition at 6.25 µg/mL in assay [1] (Sclerotinia sclerotiorum, FSC10, fungicidal profile, 6.25 µg/mL, read-out: S. sclerotiorum inhibition) is 95.6%; in assay [3] (Botrytis cinerea, FBC05, fungicidal profile, 6.25 µg/mL, read-out: B. cinerea inhibition), 98.5%. Further, in assay [1] (Sclerotinia sclerotiorum, FSC10, fungicidal profile, 12.5 µg/mL, read-out: S. sclerotiorum inhibition), the inhibition at 12.5 µg/mL was 96.3%. In addition, the IC50 (in general, the concentration that gives 50% inhibition) in assay [1] (Sclerotinia sclerotiorum, FSC10, log-logistic model, 0–50 µg/mL range, read-out: IC50 against Sclerotinia sclerotiorum (Ss)) turned out to be 4.2 µg/mL (≈ 13.9 µM); in assay [3] (Botrytis cinerea, FBC05, log-logistic model, 0–50 µg/mL range, read-out: IC50 against Botrytis cinerea (Bc)), 0.1 µg/mL (≈ 0.331 µM).

On to `O=C(N/N=C/c1ccccc1)c1ccc(O)cc1` [compound 1], for which the inhibition of growth at 50 µg/mL in assay [2] (Cerrena unicolor, NO.139) was found to be 10.6 ± 1.1%; in assay [3] (Botrytis cinerea, FBC05), 2.6 ± 0.2%. The “fungal growth inhibition, S. sclerotiorum” value in assay [1] (setting [5]) is “n.o”. In addition, in assay [4], the Ki (as a rule, the dissociation constant of the complex between target and ligand, obtained from inhibition or displacement) was 1470 µM.

For `O=C(N/N=C/CCc1ccccc1)c1ccc(O)cc1` [compound 2], the inhibition of growth at 50 µg/mL in assay [2] (Cerrena unicolor, NO.139) is 18 ± 3.2%. The “fungal growth inhibition, S. sclerotiorum” value in assay [1] (setting [5]) was “n.o”. Further, the “fungal growth inhibition, B. cinerea” value in assay [3] is recorded as “n.o”. Further, the Ki in assay [4] is 1920 µM.

Consider `Cc1ccc(/C=N/NC(=O)c2ccc(O)cc2)cc1` [compound 3], for which the “fungal growth inhibition, C. unicolor” value in assay [2] was “n.o”. In assay [1] (setting [5]), the “fungal growth inhibition, S. sclerotiorum” value is listed as “n.o”. For the same compound, the inhibition of growth at 50 µg/mL in assay [3] (Botrytis cinerea, FBC05) came out at 3.3 ± 1.1%. In assay [4], the Ki was 251 µM.

In the case of `CC(C)c1ccc(/C=N/NC(=O)c2ccc(O)cc2)cc1` [compound 4], the inhibition of growth at 50 µg/mL in assay [2] (Cerrena unicolor, NO.139) turned out to be 20.9 ± 2.8%; in assay [3] (Botrytis cinerea, FBC05), 12 ± 2.6%. Further, the “fungal growth inhibition, S. sclerotiorum” value in assay [1] (setting [5]) was “n.o”.

As to `O=C(N/N=C/c1ccccc1S(=O)(=O)[O-])c1ccc(O)cc1.[Na+]` [compound 5], in assay [2] (Cerrena unicolor, NO.139), the inhibition of growth at 50 µg/mL turned out to be 23.6 ± 4.2%. Moreover, the “fungal growth inhibition, S. sclerotiorum” value in assay [1] (setting [5]) was “n.o”. Besides, the “fungal growth inhibition, B. cinerea” value in assay [3] is listed as “n.o”. The Ki in assay [4] is no less than 2400 µM.

On to `O=C(N/N=C/c1ccccc1O)c1ccc(O)cc1` [compound 6], for which the inhibition of growth at 50 µg/mL was found to be 14.7 ± 0.3% in assay [2] (Cerrena unicolor, NO.139) and 4.7 ± 1.1% in assay [3] (Botrytis cinerea, FBC05). For the same compound, the “fungal growth inhibition, S. sclerotiorum” value in assay [1] (setting [5]) is “n.o”. In addition, in assay [4], the Ki was 674 µM.

Turning to `O=C(N/N=C/c1cccc(O)c1)c1ccc(O)cc1` [compound 7], the inhibition of growth at 50 µg/mL in assay [2] (Cerrena unicolor, NO.139) worked out at 12.6 ± 4.1%; in assay [3] (Botrytis cinerea, FBC05) it was 3.7 ± 1.8%. For the same compound, in assay [1] (setting [5]), the “fungal growth inhibition, S. sclerotiorum” value is “n.o”. For the same compound, in assay [4], the Ki was 2400 µM.

For the compound `O=C(N/N=C/c1ccc(O)cc1)c1ccc(O)cc1` [compound 8], the inhibition of growth at 50 µg/mL is 14.3 ± 1.7% in assay [2] (Cerrena unicolor, NO.139) and 4.2 ± 1.5% in assay [3] (Botrytis cinerea, FBC05). Also, the “fungal growth inhibition, S. sclerotiorum” value in assay [1] (setting [5]) is given as “n.o”. Also, the Ki in assay [4] is 638 µM.

Regarding `COc1ccccc1/C=N/NC(=O)c1ccc(O)cc1` [compound 9], the inhibition of growth at 50 µg/mL in assay [2] (Cerrena unicolor, NO.139) was 22.3 ± 2.6%; in assay [3] (Botrytis cinerea, FBC05) it was 3.3 ± 1.2%. Besides, the “fungal growth inhibition, S. sclerotiorum” value in assay [1] (setting [5]) is on record as “n.o”. Moreover, in assay [4], the Ki is 1060 µM.

Regarding `COc1cccc(/C=N/NC(=O)c2ccc(O)cc2)c1` [compound 10], in assay [2], the “fungal growth inhibition, C. unicolor” value is “n.o”. Further, in assay [1] (setting [5]), the “fungal growth inhibition, S. sclerotiorum” value is given as “n.o”. Moreover, the inhibition of growth at 50 µg/mL in assay [3] (Botrytis cinerea, FBC05) is 3.9 ± 2.4%. Further, the Ki in assay [4] is 416 µM.

The values are drawn from article PMC11124341, “4-Hydroxybenzoic Acid-Based Hydrazide–Hydrazones as Potent Growth Inhibition Agents of Laccase-Producing Phytopathogenic Fungi That Are Useful in the Protection of Oilseed Crops” (Molecules, 2024).
